PMC6547740, “Potent and specific MTH1 inhibitors targeting gastric cancer” (Cell Death & Disease, 2019)

Experiments:
[1] = test system: MCF-7 cells; assay: MTT cell viability, MCF-7; format: cell-based; conditions: Homo sapiens, MCF7, breast cancer cell line, 72 h
Description: (§1) The cell viability was determined by 3-(4,5-dimethylthiazol-2-yl)-2,5-diphenyltetrazolium bromide (MTT) assay, according to the manufacturer’s instructions. 1 day before treatment, cells were seeded into 96-well plates at a concentration of 2–5 × 10^3 cells per well, followed by treatment with fresh medium containing serial dilutions of candidate compounds for 48 or 72 h, 20 μL of MTT solution (5 mg/mL in PBS) was then added to each well. After treatment, the plates were incubated at 37 °C for another 4 h. Subsequently, the MTT solution was removed and 150 μL of DMSO was added to each well for 10 min, and then the plates were shaken to dissolve the dark blue crystal (formazan), the absorbance was detected at 570 nm using a BioTek microplate reader. The data were analyzed using SPSS 20 software.

[2] = test system: MGC-803 cells; assay: Colony formation assay, MGC-803; format: cell-based, human; conditions: MGC-803, 7 days treatment, compared with DMSO or MI-929
Description: (§2) The day before treatment, cells were seeded into six-well plates at a concentration of 1 × 10^3 cells per well, and then the media were replaced with fresh media containing serial concentrations of candidate compounds. After 7 days of treatment, the cells were fixed with 75% ethanol, stained with 0.1% crystal violet solution and captured by the microscopy (Leica). After that, the crystal violet crystals were dissolved by adding methanol. The absorbance at 595 nm was measured by a BioTek micro plate reader. In the end, the data were analyzed using the GraphPad Prism 5 software.

[3] = test system: SMMC-7721 cells; assay: MTT cell viability, SMMC-7721; format: cell-based; conditions: Homo sapiens, liver cancer cell line, 72 h
Description: as §1

[4] = test system: GES-1 cells; assay: MTT cell viability, GES-1; format: cell-based; conditions: Homo sapiens, GES1, normal gastric epithelial cell line, 72 h
Description: as §1

[5] = test system: HepG2 cells; assay: MTT cell viability, HepG2; format: cell-based; conditions: Homo sapiens, liver cancer cell line, 72 h
Description: as §1

[6] = test system: MKN45 cells; assay: MTT cell viability, MKN45; format: cell-based; conditions: Homo sapiens, MKN-45, gastric cancer cell line, 72 h
Description: as §1

[7] = test system: GES-1 cells; assay: Colony formation assay, GES-1; format: cell-based, human; conditions: GES-1 gastric normal cells, 7 days treatment
Description: as §2

[8] = test system: HGC-27 cells; assay: 8-oxo-dG assay (Cy3-conjugated avidin), HGC-27; format: cell-based, human; conditions: HGC-27, 5 µM, 48 h, compared with DMSO
Description: (§3) Intracellular 8-oxo-dG levels were measured by staining with Cy3-conjugated avidin[65]. Cells were seeded on coverslips in 24-well plates (1–1.5 × 10^4 cells/well) overnight, and then transfected with candidate compounds. After 48 h, the cells were fixed with ice-cold methanol in Tris-buffered saline (TBS) for 15 min and blocked, using TBS with 0.1% Triton X-100 and 15% fetal bovine serum for 1 h. Then, the cells were stained with Cy3-conjugated avidin (0.5 µg/mL) for 1 h at room temperature. DNA was counterstained with 4,6-diamidino-2-phenylindole(DAPI). Images were acquired in a Nikon Eclipse TE 2000-S fluorescence microscope.

[9] = test system: KYSE-450 cells; assay: MTT cell viability, KYSE-450; format: cell-based; conditions: Homo sapiens, esophageal cancer cell line, 72 h
Description: as §1

[10] = test system: SGC-7901 cells; assay: MTT cell viability, SGC-7901; format: cell-based; conditions: Homo sapiens, gastric cancer cell line, 72 h
Description: as §1

[11] = test system: HGC-27 cells; assay: MTT cell viability, HGC-27; format: cell-based; conditions: Homo sapiens, gastric cancer cell line, 72 h
Description: as §1

[12] = test system: B16-F10 cells; assay: MTT cell viability, B16-F10; format: cell-based; conditions: Mus musculus, 72 h
Description: as §1

[13] = test system: pc9 cells; assay: MTT cell viability, pc9; format: cell-based; conditions: Homo sapiens, PC-9, 72 h
Description: as §1

[14] = test system: HGC-27 cells; assay: Alkaline comet assay, HGC-27; format: cell-based, human; conditions: HGC-27, 10 µM, 48 h, compared with DMSO
Description: MGC-803 and HGC-27 cells were seeded into 6-well plates(1.5 × 10^5 cells/well) and cultured overnight. For siRNA experiments, the control siRNA and MTH1 siRNA were transfected into cells. For compounds experiments, cells were treated with candidate compounds MI-743 for 48 h before collection. For the H2O2 control, cells were treated with 100 µM H2O2 for 10 min. Subsequently, cells were harvested, washed and resuspended with PBS. After counting, cells were mixed with 1.2% low melting-temperature agarose at 37 °C. The mixtures were layered onto pre-warmed glass slides, which were pre-coated with 1% agarose. After adding coverslips, slides were kept in 4 °C immediately for 10-15 min, followed by immersing in pre-chilled lysis buffer(2.5 M NaCl, 0.1 M EDTA, 10 mM Tris-HCL pH 7.7, 1% Triton X-100, 1% DMSO)for 5-8 h. Then, slides were washed three times with enzyme reaction buffer (40 mM HEPES pH 8.0, 0.1 M KCl, 0.5 mM EDTA and 0.2 mg/mL BSA) and incubated for another 45 min in pre-chilled alkaline electrophoresis buffer (50 mM NaOH, 1 mM EDTA, 1% DMSO, pH12.8). After electrophoresis for 30 min at 25 V, slides were neutralized with 0.4 M Tris-HCl pH 7.0 for 1 h and stained with 1‰ EB for 5 min. At last, images were acquired using fluorescence microscope and analysised by CometScore software.

[15] = test system: MGC-803 cells; assay: 8-oxo-dG assay (Cy3-conjugated avidin), MGC-803; format: cell-based, human; conditions: MGC-803, 5 µM, 48 h, compared with DMSO
Description: as §3

[16] = test system: EC9706 cells; assay: MTT cell viability, EC9706; format: cell-based; conditions: Homo sapiens, esophageal cancer cell line, 72 h
Description: as §1

[17] = test system: L02 cells; assay: MTT cell viability, L02; format: cell-based; conditions: Homo sapiens, normal liver cell line, 72 h
Description: as §1

[18] = test system: ZIP177 cells; assay: MTT cell viability, ZIP177; format: cell-based; conditions: Homo sapiens, liver cancer cell line, 72 h
Description: as §1

[19] = test system: TE-1 cells; assay: MTT cell viability, TE-1; format: cell-based; conditions: Homo sapiens, 72 h
Description: as §1

- IC50 [1]: 9.67 ± 1.01 µM
- IC50 [3]: 5.39 ± 0.73 µM
- IC50 [5]: 6.73 ± 0.83 µM
- IC50 [6]: 16 ± 1.18 µM
- IC50 [10]: 10.4 ± 1.01 µM
- IC50 [12]: 8.08 ± 0.91 µM
- IC50 [13]: 9.53 ± 0.98 µM
SMILES: C#CCSc1nc(NNC(N)=S)c(C#N)c(-c2ccc3oc(=O)ccc3c2)n1 [MI-743, 2-(5-cyano-6-(2-oxo-2H-chromen-6-yl)-2-(prop-2-yn-1-ylthio)pyrimidin-4-yl)hydrazine-1-carbothioamide]
- colony formation [2]: smaller and fewer colonies
- IC50 [4]: 25.5 ± 1.02 µM
- colony formation [7]: no obviously inhibitory effect
- levels of 8-oxo-dG [8]: sharply increased
- IC50 [9]: 6.69 ± 0.82 µM
- IC50 [11]: 1.14 ± 0.16 µM
- comet tail moment [14]: significantly elevated
- levels of 8-oxo-dG [15]: sharply increased
- IC50 [16]: 8.35 ± 0.92 µM
- IC50 [17]: 17.3 ± 1.23 µM
- IC50 [18]: 9.36 ± 0.92 µM
- IC50 [19]: 12.8 ± 1.07 µM
